We go through 29 compounds from patent US9546173B2 (Novartis AG, priority 2012, dated 2017).

SMILES strings stand for the structures. pIC50: −log10 of the molar value. Bounds are passed on as bounds.

For the first experiment, the target named is activated ERK2 (Homo sapiens (Human), UniProt P28482). The experiment can be described thus: Activated ERK2 kinase assay (AlphaScreen, ERKtide peptide phosphorylation). Format: biochemical. Particulars: 0.25 nM ERK2, 200 nM ERKtide peptide, 35 μM ATP, 30 min preincubation; read-out: ERK2 IC50. A general note: In Alpha technology, singlet oxygen from a donor bead excites a nearby acceptor bead.
activated ERK2, sequence (P28482 whole entry): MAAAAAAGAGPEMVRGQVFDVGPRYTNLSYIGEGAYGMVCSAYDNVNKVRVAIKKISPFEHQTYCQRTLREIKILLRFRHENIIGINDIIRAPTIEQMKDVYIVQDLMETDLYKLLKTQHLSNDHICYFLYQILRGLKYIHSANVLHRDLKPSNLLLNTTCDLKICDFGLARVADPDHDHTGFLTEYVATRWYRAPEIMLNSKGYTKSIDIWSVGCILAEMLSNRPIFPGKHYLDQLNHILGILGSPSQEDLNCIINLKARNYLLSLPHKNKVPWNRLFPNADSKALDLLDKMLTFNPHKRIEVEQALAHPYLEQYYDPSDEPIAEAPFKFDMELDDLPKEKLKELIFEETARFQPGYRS
As usually defined, the pIC50 is the IC50 on a negative log10 scale, so that one unit is a factor of ten. `CN(C)C[C@H](NC(=O)N1Cc2nc(Nc3ccccc3)ncc2C1(C)C)c1ccccc1` [compound 168, (R)-N-(2-(dimethylamino)-1-phenylethyl)-5,5-dimethyl-2-(phenylamino)-5H-pyrrolo[3,4-d]pyrimidine-6(7H)-carboxamide]: the negative logarithm of the IC50 (pIC50) is 3.90.

Still in this experiment, the particulars now being: […] ERK2, 200 nM ERKtide peptide, 35 μM ATP, 30 min preincubation; read-out: ERK2 IC50.
`CC1(C)c2cnc(NC3CCOCC3)nc2CN1C(=O)NCc1ccc(C#N)cc1` [compound 122, N-(4-cyanobenzyl)-5,5-dimethyl-2-((tetrahydro-2H-pyran-4-yl)amino)-5H-pyrrolo[3,4-d]pyrimidine-6(7H)-carboxamide]: the negative-log IC50 (pIC50) is 7.42. Take `CC1(C)c2cnc(NC3CCOCC3)nc2CN1C(=O)NCc1ccc(Br)cc1` [compound 123, N-(4-bromobenzyl)-5,5-dimethyl-2-((tetrahydro-2H-pyran-4-yl)amino)-5H-pyrrolo[3,4-d]pyrimidine-6(7H)-carboxamide]: the negative-log IC50 (pIC50) is 8.15.

As to `CC1(C)c2cnc(NC3CCOCC3)nc2CN1C(=O)NCc1ccc(Cl)c(F)c1` [compound 124, N-(4-chloro-3-fluorobenzyl)-5,5-dimethyl-2-((tetrahydro-2H-pyran-4-yl)amino)-5H-pyrrolo[3,4-d]pyrimidine-6(7H)-carboxamide], the pIC50 was 8.22. On the same count and under the same terms, as for `COc1ccc(CNC(=O)N2Cc3nc(NC4CCOCC4)ncc3C2(C)C)cc1` [compound 125, N-(4-methoxybenzyl)-5,5-dimethyl-2-((tetrahydro-2H-pyran-4-yl)amino)-5H-pyrrolo[3,4-d]pyrimidine-6(7H)-carboxamide], the figure is 7.25; as for `CC1(C)c2cnc(NC3CCOCC3)nc2CN1C(=O)NCc1ccc(Cl)c(Cl)c1` [compound 126, N-(3,4-dichlorobenzyl)-5,5-dimethyl-2-((tetrahydro-2H-pyran-4-yl)amino)-5H-pyrrolo[3,4-d]pyrimidine-6(7H)-carboxamide], 9.00. Consider `Cc1cccc([C@@H](CO)NC(=O)N2Cc3nc(NC4CCOCC4)ncc3C2(C)C)c1` [compound 127, (S)-N-(2-hydroxy-1-(m-tolyl)ethyl)-5,5-dimethyl-2-((tetrahydro-2H-pyran-4-yl)amino)-5H-pyrrolo[3,4-d]pyrimidine-6(7H)-carboxamide], for which the pIC50 is 7.80. The same measure, in the same setting: under `CC1(C)c2cnc(NC3CCOCC3)nc2CN1C(=O)N[C@H](CO)c1cccc(F)c1` [compound 128, (S)-N-(1-(3-fluorophenyl)-2-hydroxyethyl)-5,5-dimethyl-2-((tetrahydro-2H-pyran-4-yl)amino)-5H-pyrrolo[3,4-d]pyrimidine-6(7H)-carboxamide] stands 8.05. Same read-out and setting: under `Cc1ccc(CNC(=O)N2Cc3nc(NC4CCOCC4)ncc3C2(C)C)cc1` [compound 129, 5,5-dimethyl-N-(4-methylbenzyl)-2-((tetrahydro-2H-pyran-4-yl)amino)-5H-pyrrolo[3,4-d]pyrimidine-6(7H)-carboxamide] stands 7.68; under `CC1(C)c2cnc(NC3CCOCC3)nc2CN1C(=O)NCc1cccc(S(=O)(=O)C2CC2)c1` [compound 130, N-(3-(cyclopropylsulfonyl)benzyl)-5,5-dimethyl-2-((tetrahydro-2H-pyran-4-yl)amino)-5H-pyrrolo[3,4-d]pyrimidine-6(7H)-carboxamide], 7.15. As to `C[C@@H](NC(=O)N1Cc2nc(NC3CCOCC3)ncc2C1(C)C)c1cccc(S(C)(=O)=O)c1` [compound 131, (R)-5,5-dimethyl-N-(1-(3-(methylsulfonyl)phenyl)ethyl)-2-((tetrahydro-2H-pyran-4-yl)amino)-5H-pyrrolo[3,4-d]pyrimidine-6(7H)-carboxamide], the pIC50 is 8.05. Still for that read-out and setting: as for `CC1(C)c2cnc(NC3CCOCC3)nc2CN1C(=O)NCc1ccc(SC(F)(F)F)cc1` [compound 132, 5,5-dimethyl-2-((tetrahydro-2H-pyran-4-yl)amino)-N-(4-((trifluoromethyl)thio)benzyl)-5H-pyrrolo[3,4-d]pyrimidine-6(7H)-carboxamide], the figure is 7.96.

For the compound `CC1(C)c2cnc(NC3CCOCC3)nc2CN1C(=O)NCc1ccc(Oc2ccccc2)cc1` [compound 133, 5,5-dimethyl-N-(4-phenoxybenzyl)-2-((tetrahydro-2H-pyran-4-yl)amino)-5H-pyrrolo[3,4-d]pyrimidine-6(7H)-carboxamide], the pIC50 is 7.96. In the case of `CC1(C)c2cnc(NC3CCOCC3)nc2CN1C(=O)NCc1ccc([S+]([O-])C(F)(F)F)cc1` (stereo not drawn) [compound 134, 5,5-dimethyl-2-((tetrahydro-2H-pyran-4-yl)amino)-N-(4-((trifluoromethyl)sulfinyl)benzyl)-5H-pyrrolo[3,4-d]pyrimidine-6(7H)-carboxamide], the pIC50 is 7.41. Regarding `CC1(C)c2cnc(NC3CCOCC3)nc2CN1C(=O)NCc1cccc(C#N)c1` [compound 135, N-(3-cyanobenzyl)-5,5-dimethyl-2-((tetrahydro-2H-pyran-4-yl)amino)-5H-pyrrolo[3,4-d]pyrimidine-6(7H)-carboxamide], the pIC50 is 7.42. Same read-out and setting: as for `C[C@@H](NC(=O)N1Cc2nc(NC3CCOCC3)ncc2C1(C)C)c1ccc(C#N)cc1` [compound 136, (R)-N-(1-(4-cyanophenyl)ethyl)-5,5-dimethyl-2-((tetrahydro-2H-pyran-4-yl)amino)-5H-pyrrolo[3,4-d]pyrimidine-6(7H)-carboxamide], the figure is 7.68; as for `CC1(C)c2cnc(NC3CCOCC3)nc2CN1C(=O)NCc1ccc(S(=O)(=O)C(F)(F)F)cc1` [compound 137, 5,5-dimethyl-2-((tetrahydro-2H-pyran-4-yl)amino)-N-(4-((trifluoromethyl)sulfonyl)benzyl)-5H-pyrrolo[3,4-d]pyrimidine-6(7H)-carboxamide], 7.72. In the case of `CC1(C)c2cnc(NC3CCOCC3)nc2CN1C(=O)N[C@H](CCO)c1ccccc1` [compound 138, (R)-N-(3-hydroxy-1-phenylpropyl)-5,5-dimethyl-2-((tetrahydro-2H-pyran-4-yl)amino)-5H-pyrrolo[3,4-d]pyrimidine-6(7H)-carboxamide], the pIC50 is 7.14. On the same count and under the same terms, as for `C[C@@H](NC(=O)N1Cc2nc(NC3CCOCC3)ncc2C1(C)C)c1ccc(S(C)(=O)=O)cc1` [compound 139, (R)-5,5-dimethyl-N-(1-(4-(methylsulfonyl)phenyl)ethyl)-2-((tetrahydro-2H-pyran-4-yl)amino)-5H-pyrrolo[3,4-d]pyrimidine-6(7H)-carboxamide], the figure is 7.49; as for `CC1(C)c2cnc(NC3CCOCC3)nc2CN1C(=O)N[C@@H]1CCN(Cc2ccccc2F)C1` [compound 146, (R)-N-(1-(2-fluorobenzyl)pyrrolidin-3-yl)-5,5-dimethyl-2-((tetrahydro-2H-pyran-4-yl)amino)-5H-pyrrolo[3,4-d]pyrimidine-6(7H)-carboxamide], 7.85. Consider `CC1(C)c2cnc(NC3CCOCC3)nc2CN1C(=O)NC1CC(CO)CN(Cc2ccccc2F)C1` (stereo not drawn) [compound 147, N-(1-(2-fluorobenzyl)-5-(hydroxymethyl)piperidin-3-yl)-5,5-dimethyl-2-((tetrahydro-2H-pyran-4-yl)amino)-5H-pyrrolo[3,4-d]pyrimidine-6(7H)-carboxamide], for which the pIC50 is 6.67.

For `CN1CCN(C(=O)N2Cc3nc(Nc4ccccc4)ncc3C2(C)C)CC1(C)C` [compound 149, (5,5-dimethyl-2-(phenylamino)-5H-pyrrolo[3,4-d]pyrimidin-6(7H)-yl)(3,3,4-trimethylpiperazin-1-yl)methanone], the negative-log IC50 (pIC50) was 4.42. Still for that read-out and setting: as for `CN1CC(NC(=O)N2Cc3nc(Nc4ccccc4)ncc3C2(C)C)C1` [compound 153, 5,5-dimethyl-N-(1-methylazetidin-3-yl)-2-(phenylamino)-5H-pyrrolo[3,4-d]pyrimidine-6(7H)-carboxamide], the figure is 3.90; as for `CN1CCN(C(=O)N2Cc3nc(Nc4ccccc4)ncc3C2(C)C)C(Cc2ccccc2)C1` (stereo not drawn) [compound 154, (2-benzyl-4-methylpiperazin-1-yl)(5,5-dimethyl-2-(phenylamino)-5H-pyrrolo[3,4-d]pyrimidin-6(7H)-yl)methanone], 5.52; as for `CC1(C)c2cnc(Nc3ccccc3)nc2CN1C(=O)NC1CCN(Cc2ccccc2)C1` (stereo not drawn) [compound 155, N-(1-benzylpyrrolidin-3-yl)-5,5-dimethyl-2-(phenylamino)-5H-pyrrolo[3,4-d]pyrimidine-6(7H)-carboxamide], 6.01.

On to `C[C@@H](NC(=O)N1Cc2nc(NC3CCOCC3)ncc2C1C1CC1)c1cccc(Cl)c1` (stereo partly drawn) [compound 171, N-((R)-1-(3-chlorophenyl)ethyl)-5-cyclopropyl-2-((tetrahydro-2H-pyran-4-yl)amino)-5H-pyrrolo[3,4-d]pyrimidine-6(7H)-carboxamide], for which the pIC50 was 6.46.

Turning to `C[C@@H](NC(=O)N1Cc2nc(NC3CCOCC3)ncc2C1C1CC1)c1cccc(Cl)c1` (stereo partly drawn) [compound 172, N-((R)-1-(3-chlorophenyl)ethyl)-5-cyclopropyl-2-((tetrahydro-2H-pyran-4-yl)amino)-5H-pyrrolo[3,4-d]pyrimidine-6(7H)-carboxamide], the negative-log IC50 (pIC50) is 6.84.

The target of a further experiment is RSK2 (Homo sapiens (Human), UniProt P51812). As to the kind of experiment: In vitro inhibition of RSK2. Format: biochemical. To be noted: in vitro activity on RSK2; where multiple measurements were made, each value is reported. On the procedure: The following Table 3 lists compounds that were tested for inhibition of RSK; the IC50 values are in micromolar units, and refer to inhibition of RSK1 and RSK2, respectively. Where multiple measurements were made, each value is reported.
RSK2, sequence (P51812 whole entry, species assumed): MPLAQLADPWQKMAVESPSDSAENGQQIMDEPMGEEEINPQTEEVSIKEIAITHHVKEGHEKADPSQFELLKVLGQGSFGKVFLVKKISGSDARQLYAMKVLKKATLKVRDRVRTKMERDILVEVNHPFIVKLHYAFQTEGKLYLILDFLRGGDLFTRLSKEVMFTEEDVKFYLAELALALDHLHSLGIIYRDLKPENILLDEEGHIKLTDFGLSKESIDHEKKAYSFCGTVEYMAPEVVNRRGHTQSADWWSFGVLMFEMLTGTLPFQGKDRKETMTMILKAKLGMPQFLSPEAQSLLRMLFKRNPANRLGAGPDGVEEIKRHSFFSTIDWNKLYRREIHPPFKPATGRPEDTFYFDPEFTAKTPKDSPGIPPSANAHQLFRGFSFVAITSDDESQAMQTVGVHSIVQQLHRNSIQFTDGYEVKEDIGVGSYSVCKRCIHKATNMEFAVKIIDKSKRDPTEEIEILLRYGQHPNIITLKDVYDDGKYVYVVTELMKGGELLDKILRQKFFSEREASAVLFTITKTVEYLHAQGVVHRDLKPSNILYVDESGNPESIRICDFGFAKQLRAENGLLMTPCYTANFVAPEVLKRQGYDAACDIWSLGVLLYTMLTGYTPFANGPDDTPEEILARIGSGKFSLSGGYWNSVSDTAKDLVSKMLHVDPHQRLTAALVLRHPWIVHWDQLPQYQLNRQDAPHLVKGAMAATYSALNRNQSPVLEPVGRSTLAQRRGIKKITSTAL
The compound `CN1CCN(C(=O)N2Cc3nc(Nc4ccccc4)ncc3C2(C)C)CC1(C)C` [compound 149, (5,5-dimethyl-2-(phenylamino)-5H-pyrrolo[3,4-d]pyrimidin-6(7H)-yl)(3,3,4-trimethylpiperazin-1-yl)methanone] showed a pIC50 of 6.21. Same read-out and setting: as for `CN1CC(NC(=O)N2Cc3nc(Nc4ccccc4)ncc3C2(C)C)C1` [compound 153, 5,5-dimethyl-N-(1-methylazetidin-3-yl)-2-(phenylamino)-5H-pyrrolo[3,4-d]pyrimidine-6(7H)-carboxamide], the figure is 5.86; as for `CN1CCN(C(=O)N2Cc3nc(Nc4ccccc4)ncc3C2(C)C)C(Cc2ccccc2)C1` (stereo not drawn) [compound 154, (2-benzyl-4-methylpiperazin-1-yl)(5,5-dimethyl-2-(phenylamino)-5H-pyrrolo[3,4-d]pyrimidin-6(7H)-yl)methanone], 5.79; as for `CC1(C)c2cnc(Nc3ccccc3)nc2CN1C(=O)NC1CCN(Cc2ccccc2)C1` (stereo not drawn) [compound 155, N-(1-benzylpyrrolidin-3-yl)-5,5-dimethyl-2-(phenylamino)-5H-pyrrolo[3,4-d]pyrimidine-6(7H)-carboxamide], 5.72.

`C[C@@H](NC(=O)N1Cc2nc(Nc3ccccc3)ncc2C1(C)C)c1ccccc1` [compound 156, (R)-5,5-dimethyl-2-(phenylamino)-N-(1-phenylethyl)-5H-pyrrolo[3,4-d]pyrimidine-6(7H)-carboxamide]: the pIC50 is 5.59.

For `C[C@H](NC(=O)N1Cc2nc(Nc3ccccc3)ncc2C1(C)C)c1ccccc1` [compound 169, (S)-5,5-dimethyl-2-(phenylamino)-N-(1-phenylethyl)-5H-pyrrolo[3,4-d]pyrimidine-6(7H)-carboxamide], the pIC50 is less than 4.60.
